Earlier results as cited in patent US12527793B2, “Pharmaceutical compositions” (Shenzhen Pharmacin Co., Ltd., priority 2020, dated 2026).

Details: source footnote 1: Pallicer et al., ADMET & DMPK 2(2) (2014) 107-114
For COC(=O)[C@H](c1ccccc1Cl)N1CCc2sccc2C1 [Clopidogrel], the “Experimental log P” value is given as 4.52^1. For O=c1n(CCCN2CCN(c3cccc(Cl)c3)CC2)nc2ccccn12 [Trazodone], the “Experimental log P” value is listed as 2.82^1. For C=C[C@H]1C[N@@]2CC[C@H]1C[C@H]2[C@H](O)c1ccnc2ccc(OC)cc12 [Quinine], the “Experimental log P” value is listed as 2.64^1. In the case of CN(C)CCC(c1ccc(Br)cc1)c1ccccn1 (stereo not shown) [Brompheniramine], the “Experimental log P” value is given as 2.88^1. For CC(C(=O)O)c1ccc(-c2ccccc2)c(F)c1 (stereo not shown) [Flurbiprofen], the “Experimental log P” value is given as 3.84^1. In the case of COc1ccc([C@@H]2CC(=O)c3c(O)cc(O)cc3O2)cc1O [Hesperetin], the “Experimental log P” value is listed as 2.60^1. In the case of CN(C)CCCN1c2ccccc2Sc2ccc(Cl)cc21 [Chlorpromazine], the “Experimental log P” value is listed as 5.27^1. In the case of O=C(O)CCC(=O)c1ccc(-c2ccccc2)cc1 [Fenbufen], the “Experimental log P” value is given as 3.2^1. In the case of Cc1ccc(-c2cc(C(F)(F)F)nn2-c2ccc(S(N)(=O)=O)cc2)cc1 [Celecoxib], the “Experimental log P” value is listed as 3.91^1. For CNCC[C@H](Oc1cccc2ccccc12)c1cccs1 [Duloxetine], the “Experimental log P” value is given as 4.54^1. For OCCOCCN1CCN(C2=Nc3ccccc3Sc3ccccc32)CC1 [Quetiapine], the “Experimental log P” value is listed as 3.13^1. In the case of COc1ccc(C(CN(C)C)C2(O)CCCCC2)cc1 (stereo not shown) [Venlafaxine], the “Experimental log P” value is given as 3.05^1. For O=c1cc(-c2ccc(O)cc2)oc2cc(O)cc(O)c12 [Apigenin], the “Experimental log P” value is listed as 3.02^1. For O=C(O)c1ccccc1Nc1cccc(C(F)(F)F)c1 [Flufenamic acid], the “Experimental log P” value is given as 5.19^1. In the case of C=C[C@H]1CN2CC[C@H]1C[C@H]2[C@H](O)c1ccnc2ccccc12 [Cinchonidine], the “Experimental log P” value is listed as 2.6^1. For CN[C@H]1CC[C@@H](c2ccc(Cl)c(Cl)c2)c2ccccc21 [Sertraline], the “Experimental log P” value is given as 5.17^1. In the case of O=C1C[C@@H](c2ccc(O)cc2)Oc2cc(O)cc(O)c21 [Naringenin], the “Experimental log P” value is listed as 2.52^1. In the case of COc1cccc(C2(O)CCCCC2CN(C)C)c1 (stereo not shown) [Tramadol], the “Experimental log P” value is listed as 2.7^1. In the case of CCC1=C(C)CN(C(=O)NCCc2ccc(S(=O)(=O)NC(=O)N[C@H]3CC[C@H](C)CC3)cc2)C1=O [Glimepiride], the “Experimental log P” value is listed as 3.97^1. In the case of CCN(CC)CCN1C(=O)CN=C(c2ccccc2F)c2cc(Cl)ccc21 [Flurazepam], the “Experimental log P” value is listed as 3.94^1. For O=c1cc(-c2ccccc2)oc2cc(O)cc(O)c12 [Chrysin], the “Experimental log P” value is listed as 3.52^1. For CC(C)(Oc1ccc(Cl)cc1)C(=O)O [Clofibric acid], the “Experimental log P” value is given as 2.57^1. For CN(C)CCC(c1ccc(Cl)cc1)c1ccccn1 (stereo not shown) [Chlorphenamine], the “Experimental log P” value is given as 3.17^1. In the case of O=C(CCCN1CCC(O)(c2ccc(Cl)cc2)CC1)c1ccc(F)cc1 [Haloperidol], the “Experimental log P” value is listed as 3.82^1. For CCc1cc2c(s1)N(C)C(=O)CN=C2c1ccccc1Cl [Clotiazepam], the “Experimental log P” value is given as 3.49^1. For CC(C)/N=c1\cc2n(-c3ccc(Cl)cc3)c3ccccc3nc-2cc1Nc1ccc(Cl)cc1 [Clofazimine], the “Experimental log P” value is listed as 6.3^1. For COc1ccc2c(c1)c(CC(=O)O)c(C)n2C(=O)c1ccc(Cl)cc1 [Indometacin], the “Experimental log P” value is given as 4.1^1. In the case of COc1ccc([C@@H]2Sc3ccccc3N(CCN(C)C)C(=O)[C@@H]2OC(C)=O)cc1 [Diltiazem], the “Experimental log P” value is listed as 2.84^1. In the case of CNCCC(Oc1ccc(C(F)(F)F)cc1)c1ccccc1 (stereo not shown) [Fluoxetine], the “Experimental log P” value is given as 4.42^1. In the case of CN(CCOc1ccc(CC2SC(=O)NC2=O)cc1)c1ccccn1 (stereo not shown) [Rosiglitazone], the “Experimental log P” value is listed as 3.1^1. In the case of CCCCN1CCCCC1C(=O)Nc1c(C)cccc1C (stereo not shown) [Bupivacaine], the “Experimental log P” value is given as 3.41^1.

Same assay, conditions: source footnote 5: experimental values listed on www.drugbank.ca
In the case of Cc1nc(Nc2ncc(C(=O)Nc3c(C)cccc3Cl)s2)cc(N2CCN(CCO)CC2)n1 [dasatinib], the “Experimental log P” value is given as 1.8 ^5. In the case of COC(=O)c1ccc2c(c1)NC(=O)/C2=C(\Nc1ccc(N(C)C(=O)CN2CCN(C)CC2)cc1)c1ccccc1 [nintedanib], the “Experimental log P” value is given as 3.0 ^5. For CS(=O)(=O)CCNCc1ccc(-c2ccc3ncnc(Nc4ccc(OCc5cccc(F)c5)c(Cl)c4)c3c2)o1 [lapatinib], the “Experimental log P” value is given as 5.4 ^5. For CO[C@@H]1[C@H](N(C)C(=O)c2ccccc2)C[C@H]2O[C@]1(C)n1c3ccccc3c3c4c(c5c6ccccc6n2c5c31)C(=O)NC4 [midostaurin], the “Experimental log P” value is listed as 5.89 ^5. In the case of C[C@@H](Oc1cc(-c2cnn(C3CCNCC3)c2)cnc1N)c1c(Cl)ccc(F)c1Cl [crizotinib], the “Experimental log P” value is given as 1.83 ^5. For CNC(=O)c1cc(Oc2ccc(NC(=O)Nc3ccc(Cl)c(C(F)(F)F)c3)cc2)ccn1 [sorafenib], the “Experimental log P” value is given as 3.8 ^5. In the case of C=CC(=O)N1CCC[C@@H](n2nc(-c3ccc(Oc4ccccc4)cc3)c3c(N)ncnc32)C1 [Ibrutinib], the “Experimental log P” value is listed as 3.97 ^5. In the case of CCCS(=O)(=O)Nc1ccc(F)c(C(=O)c2c[nH]c3ncc(-c4ccc(Cl)cc4)cc23)c1F [vemurafenib], the “Experimental log P” value is listed as 5.1 ^5.

Details: background statement
In the case of Cc1cn(-c2cc(NC(=O)c3ccc(C)c(Nc4nccc(-c5cccnc5)n4)c3)cc(C(F)(F)F)c2)cn1 [Nilotinib, 4-methyl-N-[3-(4-methyl-1H-imidazol-1-yl)-5-(trifluoromethyl)phenyl]-3-{[4-(pyridin-3-yl)pyrimidin-2-yl]amino}benzamide], the Solubility in water is given as “practically insoluble”.
